The values below come from article PMC10982999, “Structure-Guided Design and Optimization of Covalent VHL-Targeted Sulfonyl Fluoride PROTACs” (Journal of Medicinal Chemistry, 2024).

Each structure is given as a SMILES string.

One data set has as its system BRD4-HiBiT HEK293T cells. Conditions: 18 h, 70-0.01 μM.
A further data set can be described thus: physchem. Conditions: buffer. The protocol:
Table S1. Sulfonyl fluoride warhead stability for VHL-SF1 and VHL-SF2 was determined in
(1 picture or pasted object on this page, not shown here)

In another data set the target is T1, VHL (VCB) (Homo sapiens, UniProt P40337).
T1 construct: human VHL (UniPort entry P40337, residues 1 -213); 6xHis followed by TEV site (N, cleaved yes); made in house; host or cells: E. coli One Shot BL21(DE3)
Description: Intact-protein LC-MS of VCB labelling. The class given is binding. Conditions: 100 μM compound, 24 h, room temperature. The protocol:
Initially, we subjected VHL-SF2-Biotin to the streptavidin shift assay and observed a greater extent of VHL modification (44%) than for VHL-SF1-Biotin under the same conditions (Figure S2). […] Intact LC–MS analysis confirmed single labeling of VHL by VHL-SF2, with 65% conversion at 24 h (Figure S5). Although we attempted several site ID identification experiments by digesting the labeled recombinant VHL, the Ser110-containing peptide was not detected in the samples treated with VHL-SF2. This observation is consistent with a change in peptide properties that is incompatible with mass spectrometry detection compared to untreated samples (Table S2). […]
Figure S4. Dose-response of VHL-SF1 following a 2 h pre-incubation in the presence of VCB and FAM-conjugated HIF1α-derived peptide, assessed by fluorescence polarization. […]
HEK293 cells (10 × 10^6 cells at 2 × 10^5 cells/ mL) were transfected with 2.6 µg of VHL-NanoLuc plasmid (PROMEGA) plus 24 µg of transfection carrier plasmid (PROMEGA) and incubated for 20 h at 37 °C, in a 5% CO2 incubator. […] Immediately after addition of tracer and compounds, cells were treated with digitonin after which NanoBRET Nano-Glo Substrate and inhibitor were added and BRET signal was measured in a Clariostar plate reader (BMG Labtech) at 450 nm and 610 nm within 5 min after addition of digitonin. […]

The half-life is how long it takes for the measured level to halve.

Regarding `Cc1cc([C@H](C(=O)N2C[C@H](S(=O)(=O)F)C[C@H]2C(=O)N[C@@H](CC(=O)OC(C)(C)C)c2ccc(-c3scnc3C)cc2)C(C)C)on1` [VHL-SF2, tert-Butyl (S)-3-((2S,4R)-4-(Fluorosulfonyl)-1-((R)-3-methyl-2-(3-methylisoxazol-5-yl)butanoyl)pyrr-olidine-2-carboxamido)-3-(4-(4-methylthiazol-5-yl)phenyl)propanoate], the “cytotoxicity (CellTiter-Glo)” value in the data set on BRD4-HiBiT HEK293T cells is on record as “no evidence of cytotoxicity”. In addition, the half-life was 38 h in “physchem” (pH 4), 14 h in the data set “physchem” (pH 5), 15 h in “physchem” (pH 6) and 0.4 h in “physchem” (pH 7.5). The “conversion, single (mono) labelling of VHL” value at VHL (VCB) came to 65%.
